This passage reports LD50, change in vivo and EC50 results from patent US4798897A, “Isoquinoline derivatives” (Asahi Kasei Kogyo Kabushiki Kaisha, priority 1987, dated 1989).

One data set is described as follows: Acute toxicity in mice. The note with it: mouse, in vivo, iv; male mice. The method, then: Using ddY male mice and Wistar male rats, the acute toxicity of the compounds of the present invention was examined with respect to LD50 according to the method proposed by K. Takagi et al. (K. Takagi and H. Ozawa, "Expeprimental Techniques in Pharmacology," p200-206 (1960), NANZANDO CO., LTD., Japan).
Compounds of the present invention were tested with respect to acute toxicities according to the method as mentioned hereinbefore.

The test system of the next data set is femoral artery. The experiment in a line: Blood flow increase of femoral artery in anesthetized dogs, i.v. The class given is in vivo, dog (mongrel). The following applies: Canis lupus familiaris, iv; for change in vivo at 0.3 mg/kg: read-out: Increase in femoral artery blood flow. The method, then:
(§1) 2. Blood Flow Increase of Coronary, Vertebral and Femoral Arteries
(§2) A plethysmographic probe (manufactured and sold by NIHON KODEN CO., LTD., Japan) was mounted on the coronary, vertebral and femoral arteries, and blood flow was measured by means of an electromagnetic blood flowmeter (type:MF-27, manufactured and sold by NIHON KODEN CO., LTD., Japan). Under these conditions, the compounds of the present invention were intravenously administered through a polyethylene tube inserted to a femoral veinlet, and the change in blood flow was measured for 30 minutes by means of the electromagnetic blood flowmeter.
(§3) The effects (dilation of the arteries) of the compounds of the present invention on blood flow in coronary, vertebral and femoral arteries were examined according to the method as mentioned hereinbefore.

For another data set, the system named is vertebral artery. The experiment in a line: Blood flow increase of vertebral artery in anesthetized dogs, i.v. The note with it: Canis lupus familiaris, iv; for change in vivo at 0.3 mg/kg: read-out: Increase in vertebral artery blood flow. Format: in vivo, dog (mongrel). The method, then: as §1, §2, §3
The next data set deals with coronary artery. The experiment in a line: Blood flow increase of coronary artery in anesthetized dogs, i.v. Format: in vivo, dog (mongrel). The following applies: Canis lupus familiaris, iv; for change in vivo at 0.3 mg/kg: read-out: Increase in coronary artery blood flow. As for the experimental part: as §1, §2, §3
Another data set concerns bronchial tubes. As to the kind of experiment: Inhibition of histamine contraction of bronchial tubes (relaxation of bronchial tubes). The following applies: Cavia porcellus; guinea pig bronchial tube, 10 μM histamine; Table 16; read-out: ED50 (50% decrease of histamine contraction of bronchial tubes). As for the experimental part: 3. Inhibition of Histamine Contraction of Bronchial Tubes (Relaxation of Bronchial Tubes)
That is, a bronchial tube sample taken from a guinea pig was suspended in the 20-ml bath filled with Krebs-Henseleit nutrient solution and maintained at a temperature of 37° C. To the bath was added histamine so that the histamine concentration became 10 μM, causing the bronchial tube sample to contract. After the contraction became stable, the compounds of the present invention were added cumulatively to the bath to observe relaxation of the bronchial tube sample.
The effect of the compounds of the present invention on relaxation of bronchial tubes was examined according to the method as mentioned hereinbefore.

The subject of the next data set is mesenteric artery. The experiment in a line: Relaxation of mesenteric artery (KCl-contracted). The following applies: Oryctolagus cuniculus; rabbit mesenteric artery contracted with 15 to 20 mM KCl; read-out: ED50 (concentration attaining 50% of complete relaxation). As for the experimental part:
1. Relaxation of Mesenteric Artery
A rabbit of Japanese local variety weighing about 3 kg was bled to death. Then, the abdomen of the rabbit was dissected to locate a mesenteric artery. […] Thus, shrinking and relaxation of the artery could be measured as a load on the transducer. To the organ bath, KCl was added so that the KCl concentration became 15 to 20 mM, causing the artery to shrink. Then, the compounds of the present invention were added to the organ bath to observe relaxation of the artery.
The effect of the compounds of the present invention on relaxation of mesenteric artery was examined according to the method as mentioned hereinbefore.

The structures appear in SMILES notation. Read-outs that look alike come from different tables or passages of the source.

As usually defined, the LD50 is the dose expected to kill half of the subjects tested. Low readings indicate greater toxicity, high ones lower toxicity. Consider `CCCCCCNCCN(CC)S(=O)(=O)c1cccc2cnccc12` [Compound (28), N-ethyl-N-(2-hexylaminoethyl)-5-isoquinolinesulfonamide], for which the LD50 in the data set “Acute toxicity in mice” turned out to be 145 mg/kg. The change in vivo at 0.3 mg/kg in the data set on femoral artery (dog, i.v., 0.3 mg/kg) worked out at 31%; in the data set with vertebral artery (dog, i.v., 0.3 mg/kg), 110%; with coronary artery (dog, i.v., 0.3 mg/kg), 114%. Moreover, the EC50 with bronchial tubes came to 9 µM; with mesenteric artery, 10 µM.

Consider `NC1CCCN(S(=O)(=O)c2cccc3c(O)nccc23)C1` (stereo not drawn) [Compound (84), 1-(1-hydroxy-5-isoquinolinesulfonyl)-3-aminopiperidine], for which the LD50 in the data set “Acute toxicity in mice” worked out at 141 mg/kg. Besides, the change in vivo at 1 mg/kg in the data set on femoral artery (dog) was found to be 27%; in the data set with vertebral artery (dog) it was 51%; in the data set with coronary artery (dog), 74%. Further, the EC50 with bronchial tubes came to 8 µM; in the data set on mesenteric artery it was 13 µM.

Take `O=S(=O)(c1cccc2cnccc12)N1CCNCC1` [Comparative Compound No. 3, 1(5-Isoquinolinesulfonyl)piperazine, reference compound]: the change in vivo at 1 mg/kg in the data set with femoral artery (dog) was found to be 69%; in the data set on vertebral artery (dog), 98%; with coronary artery (dog) it was 70%.

Regarding `O=S(=O)(c1cccc2c(O)nccc12)N1CCCNCC1` [Comparative Compound No. 2, 1(1-Hydroxy-5-isoquinolinesulfonyl)-homopiperazine, reference compound], the values for the change in vivo at 0.3 mg/kg with femoral artery, with vertebral artery and in the data set on coronary artery were 30%, 48% and 27%, respectively.

Regarding `O=S(=O)(c1cccc2cnccc12)N1CCCNCC1` [Comparative Compound No. 1, 1(5-Isoquinolinesulfonyl)homopiperazine, reference compound], the change in vivo at 0.3 mg/kg turned out to be 48% in the data set with femoral artery (dog, i.v., 0.3 mg/kg); 160% in the data set with vertebral artery (dog, i.v., 0.3 mg/kg); 89% in the data set with coronary artery (dog, i.v., 0.3 mg/kg).

Consider `CCCCCCNC1CCCN(S(=O)(=O)c2cccc3cnccc23)C1` (stereo not drawn) [Compound (71), 1-(5-isoquinolinesulfonyl)-3-hexylaminopiperidine], for which the results for the change in vivo at 1 mg/kg with femoral artery (dog), in the data set with vertebral artery (dog) and in the data set with coronary artery (dog) were 35%, 85% and 102%, respectively. Moreover, the EC50 was determined as 10 µM in the data set with bronchial tubes and 4 µM in the data set on mesenteric artery.

For `CCCCCCC(CN(CCCC)S(=O)(=O)c1cccc2cnccc12)NCCC` (stereo not drawn) [Compound (38), N-(2-propylaminoocytyl)-N-butyl-5-isoquinolinesulfonamide], the EC50 with bronchial tubes came out at 23 µM; in the data set on mesenteric artery it was 8 µM.

On to `CCCN(CCCCCCN)S(=O)(=O)c1cccc2cnccc12` [Compound (10), N-(6-aminohexyl)-N-propyl-5-isoquinolinesulfonamide], for which the EC50 with bronchial tubes amounted to 16 µM; in the data set on mesenteric artery, 15 µM.

With `CC1CCN(S(=O)(=O)c2cccc3cnccc23)CC1N` (stereo not drawn) [Compound (75), 1-(5-isoquinolinesulfonyl)-3-amino-4-methylpiperidine], the EC50 with bronchial tubes was found to be 16 µM; with mesenteric artery it was 20 µM.

As for `CCCCCCNC(C)CN(CCCCCC)S(=O)(=O)c1cccc2cnccc12` (stereo not drawn) [Compound (37), N-(2-hexylaminopropyl)-N-hexyl-5-isoquinolinesulfonamide], the values for the EC50 with bronchial tubes and in the data set on mesenteric artery were 27 µM and 6 µM, respectively.

As for `CCCCCCNC1CCCN(S(=O)(=O)c2cccc3c(O)nccc23)C1` (stereo not drawn) [Compound (88), 1-(1-hydroxy-5-isoquinolinesulfonyl)-3-hexylaminopiperidine], the EC50 in the data set on bronchial tubes came to 9 µM; with mesenteric artery, 12 µM.

Consider `CCCCCCN(CCN1CCCCC1)S(=O)(=O)c1cccc2cnccc12` [Compound (45), N-hexyl-N-(2-piperidinoethyl)-5-isoquinolinesulfonamide], for which the EC50 was determined as 17 µM with bronchial tubes and 23 µM in the data set with mesenteric artery.

As to `CCCCCCN(C)C1CCN(S(=O)(=O)c2cccc3cnccc23)CC1` [Compound (59), 1-(5-isoquinolinesulfonyl)-4-(N-hexyl-N-methylamino)piperidine], the EC50 with bronchial tubes was 23 µM; with mesenteric artery, 21 µM.

For the compound `CNC1CCN(S(=O)(=O)c2cccc3c(Cl)nccc23)C1` (stereo not drawn) [Compound (102), 1-(1-chloro-5-isoquinolinesulfonyl)-3-methylaminopyrrolidine], the EC50 in the data set on bronchial tubes worked out at 18 µM; with mesenteric artery it was 16 µM.

Consider `O=S(=O)(c1cccc2c(O)nccc12)N1CCC(Nc2ccccc2)CC1` [Compound (82), 1-(1-hydroxy-5-isoquinolinesulfonyl)-4-phenylaminopiperidine], for which the EC50 with bronchial tubes and with mesenteric artery was 21 µM each time.

With `O=S(=O)(c1cccc2cnccc12)N1CCC(NCCc2ccccc2)CC1` [Compound (61), 1-(5-isoquinolinesulfonyl)-4-phenethylaminopiperidine], the EC50 with bronchial tubes and in the data set with mesenteric artery was 15 µM each time.

Regarding `O=S(=O)(c1cccc2cnccc12)N1CCC(NCc2ccccc2)CC1` [Compound (60), 1-(5-isoquinolinesulfonyl)-4-benzylaminopiperidine], the figures for the EC50 in the data set with bronchial tubes and with mesenteric artery were 13 µM and 19 µM, respectively.

Take `CCCCN(CCN)S(=O)(=O)c1cccc2cnccc12` [Compound (3), N-(2-aminoethyl)-N-butyl-5-isoquinolinesulfonamide]: the LD50 in the data set “Acute toxicity in mice” came to 105 mg/kg. The change in vivo at 0.3 mg/kg is 25% in the data set on femoral artery (dog, i.v., 0.3 mg/kg); 130% with vertebral artery (dog, i.v., 0.3 mg/kg); 134% in the data set on coronary artery (dog, i.v., 0.3 mg/kg). In addition, the figures for the EC50 in the data set on bronchial tubes and in the data set on mesenteric artery were 5 µM and 2 µM, respectively.

On to `CC(C)N(CCN)S(=O)(=O)c1cccc2cnccc12` [Compound (2), N-(2-aminoethyl)-N-isopropyl-5-isoquinolinesulfonamide], for which the figures for the EC50 with bronchial tubes and with mesenteric artery were 5 µM and 4 µM, respectively.

As for `CCCCCCCCC(N)CN(CCCCCC)S(=O)(=O)c1cccc2cnccc12` (stereo not drawn) [Compound (15), N-(2-aminodecyl)-N-hexyl-5-isoquinolinesulfonamide], the EC50 in the data set on bronchial tubes was 25 µM; with mesenteric artery, 7 µM.

With `CCCCCCN(CCCN)S(=O)(=O)c1cccc2cnccc12` [Compound (7), N-(3-aminopropyl)-N-hexyl-5-isoquinolinesulfonamide], the EC50 in the data set on bronchial tubes was determined as 13 µM; with mesenteric artery, 2 µM.

As for `CN(C)C1CCCN(S(=O)(=O)c2cccc3c(Cl)nccc23)C1` (stereo not drawn) [Compound (99), 1-(1-chloro-5-isoquinolinesulfonyl)-3-dimethylaminopiperidine], the EC50 in the data set on bronchial tubes was 19 µM; in the data set with mesenteric artery, 21 µM.

Turning to `CCCCCCN(CCCCCC)CCN(Cc1ccccc1)S(=O)(=O)c1cccc2cnccc12` [Compound (44), N-benzyl-N-(2-dihexylamimoethyl)-5-isoquinolinesulfonamide], the figures for the EC50 in the data set on bronchial tubes and in the data set with mesenteric artery were 29 µM and 21 µM, respectively.

As to `CCN(CCN(C)C1CCCCC1)S(=O)(=O)c1cccc2cnccc12` [Compound (47), N-[2-(N-cyclohexyl-N-methylamino)ethyl]-N-ethyl-5-isoquinolinesulfonamide], the EC50 in the data set with bronchial tubes was 19 µM; in the data set with mesenteric artery, 22 µM.
